Columns and labels:
Conditions in all cases: incubation time: 72 h
MDA-MB-436 [1] = assay: normalised response (% of control), CellTiter-Glo; higher = more viable cells (100 = DMSO, 0 = benzethonium chloride kill control)
In short: (§1)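 After 72 h with compound in 384-well plates, breast cancer cell lines seeded as 20 µl suspension were read for CellTox Green fluorescence at 485/520 nm. CellTiter-Glo luminescence was then read after 10 min at room temperature. Compound was present at 5 concentrations in 10-fold steps over a 10,000-fold range set per compound, and plates were normalised to 0.1 % DMSO (100) and a positive kill control (0). Values are normalised signals, each at a single concentration.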

HDQ-P1 [2] = assay: as above
In short: as §1

MFM-223 [3] = assay: as above
In short: as §1

HCC1937 [4] = assay: as above
In short: as §1

MDA-MB-231 [5] = assay: as above
In short: as §1

CAL-148 [6] = assay: as above
In short: as §1

DU-4475 [7] = assay: as above
In short: as §1

MDA-MB-453 [8] = assay: as above
In short: as §1

BT-549 [9] = assay: as above
In short: as §1

CAL-51 [10] = assay: as above
In short: as §1

BT-474 [11] = assay: as above
In short: as §1

HCC1143 [12] = assay: as above
In short: as §1

HCC1599 [13] = assay: as above
In short: as §1

MDA-MB-468 [14] = assay: as above
In short: as §1

CAL-120 [15] = assay: as above
In short: as §1

Hs578T [16] = assay: as above
In short: as §1

CAL-85-1 [17] = assay: as above
In short: as §1

MCF-10A [18] = assay: as above
In short: as §1

SK-BR-3 = assay: as above
In short: as §1

MDA-MB-436 [19] = assay: normalised response (% of control), CellTox Green; higher = less cell death (100 = DMSO, 0 = benzethonium chloride kill control)
In short: as §1

HDQ-P1 [20] = assay: as above
In short: as §1

MFM-223 [21] = assay: as above
In short: as §1

HCC1937 [22] = assay: as above
In short: as §1

MDA-MB-231 [23] = assay: as above
In short: as §1

CAL-148 [24] = assay: as above
In short: as §1

DU-4475 [25] = assay: as above
In short: as §1

MDA-MB-453 [26] = assay: as above
In short: as §1

BT-549 [27] = assay: as above
In short: as §1

CAL-51 [28] = assay: as above
In short: as §1

BT-474 [29] = assay: as above
In short: as §1

HCC1143 [30] = assay: as above
In short: as §1

HCC1599 [31] = assay: as above
In short: as §1

MDA-MB-468 [32] = assay: as above
In short: as §1

CAL-120 [33] = assay: as above
In short: as §1

Hs578T [34] = assay: as above
In short: as §1

CAL-85-1 [35] = assay: as above
In short: as §1

MCF-10A [36] = assay: as above
In short: as §1

CC[C@]1(O)C[C@H]2CN(CCc3c([nH]c4ccccc34)[C@@](C(=O)OC)(c3cc4c(cc3OC)N(C=O)[C@H]3[C@@](O)(C(=O)OC)[C@H](OC(C)=O)[C@]5(CC)C=CCN6CC[C@]43[C@@H]65)C2)C1 [Vincristine] (1000 nM) was tested, and the normalised response (MDA-MB-436 [1]) was 28.8%, the normalised response (HDQ-P1 [2]) was 71.5% and the normalised response (MFM-223 [3]) was 44.2%. The normalised response (HCC1937 [4]) was 73.2%, the normalised response (MDA-MB-231 [5]) was 48.4% and the normalised response (CAL-148 [6]) was 59.3%. For the same molecule, the normalised response (DU-4475 [7]) was 42.5%, the normalised response (MDA-MB-453 [8]) was 63.8% and the normalised response (BT-549 [9]) was 38%. The normalised response (CAL-51 [10]) was 23.8%, the normalised response (BT-474 [11]) was 53.5% and the normalised response (HCC1143 [12]) was 55.3%. For the same molecule, the normalised response (HCC1599 [13]) was 12.2%, the normalised response (MDA-MB-468 [14]) was 38.2% and the normalised response (CAL-120 [15]) was 62.2%. The normalised response (Hs578T [16]) was 25%, the normalised response (CAL-85-1 [17]) was 50.1% and the normalised response (MCF-10A [18]) was 68.1%. It also gave a normalised response (SK-BR-3) of 18.5%, a normalised response (MDA-MB-436 [19]) of 72.1% and a normalised response (HDQ-P1 [20]) of 99.3%. It also gave a normalised response (MFM-223 [21]) of 65.1%, a normalised response (HCC1937 [22]) of 102% and a normalised response (MDA-MB-231 [23]) of 45.3%. For the same molecule, the normalised response (CAL-148 [24]) was 86.8%, the normalised response (DU-4475 [25]) was 95.8% and the normalised response (MDA-MB-453 [26]) was 82.2%. For the same molecule, the normalised response (BT-549 [27]) was 73.4%, the normalised response (CAL-51 [28]) was 29.8% and the normalised response (BT-474 [29]) was 78.7%. For the same molecule, the normalised response (HCC1143 [30]) was 75.8%, the normalised response (HCC1599 [31]) was 69.7% and the normalised response (MDA-MB-468 [32]) was -25.1%. The normalised response (CAL-120 [33]) was 85%, the normalised response (Hs578T [34]) was 33.5% and the normalised response (CAL-85-1 [35]) was 54.1%. The normalised response (MCF-10A [36]) was 56.6%.
